Measurements reported in ChEMBL document CHEMBL1201862, “PubChem BioAssay data set” (2004).
Activity calls are given as the source filed them.

Legend:
Assay type in all cases: functional
[1] = target: T1, Sentrin-specific protease 8 (Homo sapiens, UniProt Q96LD8); experiment: SENP8 protease inhibitors, SAR follow-up, biochemical, luminescence (AID 504501)
T1 sequence (Q96LD8 whole entry): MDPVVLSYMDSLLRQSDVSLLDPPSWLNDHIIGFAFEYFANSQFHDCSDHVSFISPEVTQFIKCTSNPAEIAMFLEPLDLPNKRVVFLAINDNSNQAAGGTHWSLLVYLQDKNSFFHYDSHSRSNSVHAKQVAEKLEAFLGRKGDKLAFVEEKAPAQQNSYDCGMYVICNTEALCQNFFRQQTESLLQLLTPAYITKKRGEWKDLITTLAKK

[2] = target: T2, Sentrin-specific protease 6 (Homo sapiens, UniProt Q9GZR1); experiment: SAR Analysis of small molecule inhibitors of Sentrin-specific protease 6 (SENP6) using a Luminescent assay. [Related pubchem assays (depositor defined):AID2582, AID2599]
T2 sequence (Q9GZR1 whole entry): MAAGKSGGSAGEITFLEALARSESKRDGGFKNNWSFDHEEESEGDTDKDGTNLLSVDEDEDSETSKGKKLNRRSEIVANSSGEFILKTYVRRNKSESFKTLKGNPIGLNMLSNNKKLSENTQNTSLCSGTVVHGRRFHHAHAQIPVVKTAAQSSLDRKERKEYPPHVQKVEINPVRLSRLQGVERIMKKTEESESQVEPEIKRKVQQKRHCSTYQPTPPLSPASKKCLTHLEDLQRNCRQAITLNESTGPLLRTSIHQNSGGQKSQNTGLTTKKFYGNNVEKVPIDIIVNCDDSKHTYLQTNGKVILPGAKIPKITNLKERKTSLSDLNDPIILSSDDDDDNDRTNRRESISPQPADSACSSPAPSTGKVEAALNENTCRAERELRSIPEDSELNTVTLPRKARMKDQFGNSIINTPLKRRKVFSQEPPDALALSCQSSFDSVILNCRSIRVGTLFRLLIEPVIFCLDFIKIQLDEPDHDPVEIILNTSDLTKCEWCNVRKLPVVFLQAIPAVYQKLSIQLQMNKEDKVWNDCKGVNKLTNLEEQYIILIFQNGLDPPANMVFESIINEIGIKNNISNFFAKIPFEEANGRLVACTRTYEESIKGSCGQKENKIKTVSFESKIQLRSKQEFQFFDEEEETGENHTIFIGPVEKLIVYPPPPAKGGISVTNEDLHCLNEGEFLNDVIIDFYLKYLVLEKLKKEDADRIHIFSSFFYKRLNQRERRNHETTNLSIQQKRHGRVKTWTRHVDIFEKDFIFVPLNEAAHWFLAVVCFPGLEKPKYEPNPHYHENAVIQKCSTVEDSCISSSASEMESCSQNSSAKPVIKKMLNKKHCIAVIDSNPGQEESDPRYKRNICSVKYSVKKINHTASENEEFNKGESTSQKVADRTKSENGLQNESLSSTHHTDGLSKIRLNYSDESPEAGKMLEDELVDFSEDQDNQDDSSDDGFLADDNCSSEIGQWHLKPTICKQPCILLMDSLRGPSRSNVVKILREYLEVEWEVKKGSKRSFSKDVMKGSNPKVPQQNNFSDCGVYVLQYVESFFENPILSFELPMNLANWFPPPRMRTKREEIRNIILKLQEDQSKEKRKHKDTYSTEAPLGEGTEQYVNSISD

[3] = target: Protein kinase C theta type (Homo sapiens, UniProt Q04759); experiment: Navigating the Kinome. Panel member name: PRKCQ
[4] = target: 5'-AMP-activated protein kinase catalytic subunit alpha-1 (Homo sapiens, UniProt Q13131)
[5] = target: Tyrosine-protein kinase receptor TYRO3 (Homo sapiens, UniProt Q06418);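 also: TYRO3 value obtained as one member of a kinome-wide profiling panel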
[6] = target: Death-associated protein kinase 3 (Homo sapiens, UniProt O43293);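 also: measured as one member of a kinome-wide profiling panel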
Sequence of Death-associated protein kinase 3 (O43293 whole entry): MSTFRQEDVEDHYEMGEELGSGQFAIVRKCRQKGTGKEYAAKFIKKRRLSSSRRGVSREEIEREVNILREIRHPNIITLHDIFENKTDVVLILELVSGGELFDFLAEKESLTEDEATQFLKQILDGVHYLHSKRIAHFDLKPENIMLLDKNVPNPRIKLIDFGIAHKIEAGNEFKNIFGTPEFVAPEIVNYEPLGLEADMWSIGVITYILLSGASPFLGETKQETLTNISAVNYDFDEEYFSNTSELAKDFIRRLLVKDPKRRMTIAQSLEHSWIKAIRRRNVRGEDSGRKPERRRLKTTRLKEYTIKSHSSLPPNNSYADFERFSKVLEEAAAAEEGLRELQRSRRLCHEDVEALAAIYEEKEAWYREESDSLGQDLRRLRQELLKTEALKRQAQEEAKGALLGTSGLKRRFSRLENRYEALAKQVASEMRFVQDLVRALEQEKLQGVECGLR

[7] = target: Mitogen-activated protein kinase 9 (Homo sapiens, UniProt P45984);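 also: value from a kinome panel profiling assay, MAPK9 panel entry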
Sequence of Mitogen-activated protein kinase 9 (P45984 whole entry): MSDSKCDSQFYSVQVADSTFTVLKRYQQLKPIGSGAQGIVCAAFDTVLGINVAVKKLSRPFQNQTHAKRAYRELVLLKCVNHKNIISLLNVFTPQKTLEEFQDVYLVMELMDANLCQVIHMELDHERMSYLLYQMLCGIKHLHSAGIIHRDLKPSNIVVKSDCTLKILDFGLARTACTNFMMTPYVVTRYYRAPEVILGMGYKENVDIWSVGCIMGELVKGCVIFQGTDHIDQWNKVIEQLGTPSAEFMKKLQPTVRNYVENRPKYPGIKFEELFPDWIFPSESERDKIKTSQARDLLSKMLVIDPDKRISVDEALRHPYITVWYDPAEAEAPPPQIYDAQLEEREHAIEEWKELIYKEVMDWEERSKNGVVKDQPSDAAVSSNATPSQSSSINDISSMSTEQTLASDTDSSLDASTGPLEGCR

[8] = target: High affinity nerve growth factor receptor (Homo sapiens, UniProt P04629);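 also: NTRK1 tested as one member of a kinome-wide profiling panel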
Sequence of High affinity nerve growth factor receptor (P04629 whole entry): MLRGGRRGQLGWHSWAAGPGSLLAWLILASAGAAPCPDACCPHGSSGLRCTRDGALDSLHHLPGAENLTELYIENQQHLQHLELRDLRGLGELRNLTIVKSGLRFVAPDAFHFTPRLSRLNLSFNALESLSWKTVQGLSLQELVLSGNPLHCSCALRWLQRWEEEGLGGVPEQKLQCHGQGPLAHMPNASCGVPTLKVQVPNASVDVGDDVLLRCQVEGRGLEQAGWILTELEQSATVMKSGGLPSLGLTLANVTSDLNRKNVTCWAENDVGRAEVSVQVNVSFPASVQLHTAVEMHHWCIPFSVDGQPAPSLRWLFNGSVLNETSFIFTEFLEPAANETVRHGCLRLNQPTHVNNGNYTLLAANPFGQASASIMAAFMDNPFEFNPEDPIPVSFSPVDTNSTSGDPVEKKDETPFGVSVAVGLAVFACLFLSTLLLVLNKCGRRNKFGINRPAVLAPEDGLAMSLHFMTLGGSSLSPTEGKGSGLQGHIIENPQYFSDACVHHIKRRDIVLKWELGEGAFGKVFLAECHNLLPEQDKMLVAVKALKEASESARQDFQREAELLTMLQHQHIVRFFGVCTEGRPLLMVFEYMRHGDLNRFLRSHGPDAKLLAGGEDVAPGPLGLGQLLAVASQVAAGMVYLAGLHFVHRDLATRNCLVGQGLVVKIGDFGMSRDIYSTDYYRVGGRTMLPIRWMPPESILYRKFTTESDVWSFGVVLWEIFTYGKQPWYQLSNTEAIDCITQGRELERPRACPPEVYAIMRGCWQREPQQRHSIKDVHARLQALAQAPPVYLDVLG

[9] = target: Mitogen-activated protein kinase kinase kinase kinase 2 (Homo sapiens, UniProt Q12851);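 also: measured as one member of a kinome-wide kinase panel, with MAP4K2 as the panel entry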
[10] = target: cAMP-dependent protein kinase catalytic subunit PRKX (Homo sapiens, UniProt P51817)
Sequence of cAMP-dependent protein kinase catalytic subunit PRKX (P51817 whole entry): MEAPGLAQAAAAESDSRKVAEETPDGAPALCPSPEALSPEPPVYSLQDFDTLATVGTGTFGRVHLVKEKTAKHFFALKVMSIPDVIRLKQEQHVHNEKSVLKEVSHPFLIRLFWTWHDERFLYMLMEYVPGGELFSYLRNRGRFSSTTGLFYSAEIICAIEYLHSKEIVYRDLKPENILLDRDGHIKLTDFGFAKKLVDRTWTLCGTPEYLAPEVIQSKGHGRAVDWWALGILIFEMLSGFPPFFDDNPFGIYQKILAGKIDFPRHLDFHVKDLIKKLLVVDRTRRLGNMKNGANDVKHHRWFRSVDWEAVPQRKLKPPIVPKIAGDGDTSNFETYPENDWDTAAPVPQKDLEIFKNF

[11] = target: Platelet-derived growth factor receptor alpha (Homo sapiens, UniProt P16234); experiment: Navigating the Kinome. Panel member name: PDGFRA
Sequence of Platelet-derived growth factor receptor alpha (P16234 whole entry): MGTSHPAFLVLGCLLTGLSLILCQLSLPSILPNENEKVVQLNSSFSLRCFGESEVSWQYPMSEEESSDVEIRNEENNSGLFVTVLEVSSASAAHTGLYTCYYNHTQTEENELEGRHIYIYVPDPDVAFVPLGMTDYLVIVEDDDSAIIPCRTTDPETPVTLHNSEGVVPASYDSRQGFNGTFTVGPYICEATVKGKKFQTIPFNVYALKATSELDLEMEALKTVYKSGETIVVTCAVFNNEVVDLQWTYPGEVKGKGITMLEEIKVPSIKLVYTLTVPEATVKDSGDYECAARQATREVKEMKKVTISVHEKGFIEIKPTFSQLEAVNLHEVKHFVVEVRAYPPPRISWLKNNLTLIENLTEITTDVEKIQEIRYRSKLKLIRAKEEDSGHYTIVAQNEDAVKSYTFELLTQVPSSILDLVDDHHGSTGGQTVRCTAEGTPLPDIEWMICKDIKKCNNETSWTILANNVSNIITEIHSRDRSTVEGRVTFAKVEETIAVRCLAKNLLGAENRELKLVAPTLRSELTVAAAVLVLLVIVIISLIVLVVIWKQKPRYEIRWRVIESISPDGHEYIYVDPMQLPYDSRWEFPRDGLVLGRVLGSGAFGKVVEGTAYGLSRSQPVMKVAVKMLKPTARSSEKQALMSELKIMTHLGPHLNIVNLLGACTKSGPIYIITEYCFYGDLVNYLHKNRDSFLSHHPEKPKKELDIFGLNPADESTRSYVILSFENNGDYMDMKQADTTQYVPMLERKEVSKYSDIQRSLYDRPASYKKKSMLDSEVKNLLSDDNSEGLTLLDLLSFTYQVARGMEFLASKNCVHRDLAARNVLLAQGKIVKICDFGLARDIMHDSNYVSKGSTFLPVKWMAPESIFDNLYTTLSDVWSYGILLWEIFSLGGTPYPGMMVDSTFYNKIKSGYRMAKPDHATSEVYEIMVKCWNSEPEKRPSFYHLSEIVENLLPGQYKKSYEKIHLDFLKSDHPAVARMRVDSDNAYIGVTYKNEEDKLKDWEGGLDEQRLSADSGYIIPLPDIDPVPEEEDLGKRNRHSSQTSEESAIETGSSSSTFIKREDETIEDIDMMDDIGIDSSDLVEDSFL

[12] = target: Aurora kinase B (Homo sapiens, UniProt Q96GD4)
Sequence of Aurora kinase B (Q96GD4 whole entry): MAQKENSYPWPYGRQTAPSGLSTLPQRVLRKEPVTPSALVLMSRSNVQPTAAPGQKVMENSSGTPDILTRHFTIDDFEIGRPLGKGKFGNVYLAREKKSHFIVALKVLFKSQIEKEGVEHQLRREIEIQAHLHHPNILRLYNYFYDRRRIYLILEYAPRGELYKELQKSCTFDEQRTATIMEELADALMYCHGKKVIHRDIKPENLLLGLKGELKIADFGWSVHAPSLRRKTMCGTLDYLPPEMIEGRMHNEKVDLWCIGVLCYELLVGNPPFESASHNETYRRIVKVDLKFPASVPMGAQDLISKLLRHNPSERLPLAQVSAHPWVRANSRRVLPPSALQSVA

[13] = target: Vascular endothelial growth factor receptor 1 (Homo sapiens, UniProt P17948);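 also: measured within a kinome-wide profiling panel, FLT1 as the panel member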
[14] = target: BDNF/NT-3 growth factors receptor (Homo sapiens, UniProt Q16620);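 also: NTRK2 measured as one member of a broad kinome-wide kinase profiling panel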
Sequence of BDNF/NT-3 growth factors receptor (Q16620 whole entry): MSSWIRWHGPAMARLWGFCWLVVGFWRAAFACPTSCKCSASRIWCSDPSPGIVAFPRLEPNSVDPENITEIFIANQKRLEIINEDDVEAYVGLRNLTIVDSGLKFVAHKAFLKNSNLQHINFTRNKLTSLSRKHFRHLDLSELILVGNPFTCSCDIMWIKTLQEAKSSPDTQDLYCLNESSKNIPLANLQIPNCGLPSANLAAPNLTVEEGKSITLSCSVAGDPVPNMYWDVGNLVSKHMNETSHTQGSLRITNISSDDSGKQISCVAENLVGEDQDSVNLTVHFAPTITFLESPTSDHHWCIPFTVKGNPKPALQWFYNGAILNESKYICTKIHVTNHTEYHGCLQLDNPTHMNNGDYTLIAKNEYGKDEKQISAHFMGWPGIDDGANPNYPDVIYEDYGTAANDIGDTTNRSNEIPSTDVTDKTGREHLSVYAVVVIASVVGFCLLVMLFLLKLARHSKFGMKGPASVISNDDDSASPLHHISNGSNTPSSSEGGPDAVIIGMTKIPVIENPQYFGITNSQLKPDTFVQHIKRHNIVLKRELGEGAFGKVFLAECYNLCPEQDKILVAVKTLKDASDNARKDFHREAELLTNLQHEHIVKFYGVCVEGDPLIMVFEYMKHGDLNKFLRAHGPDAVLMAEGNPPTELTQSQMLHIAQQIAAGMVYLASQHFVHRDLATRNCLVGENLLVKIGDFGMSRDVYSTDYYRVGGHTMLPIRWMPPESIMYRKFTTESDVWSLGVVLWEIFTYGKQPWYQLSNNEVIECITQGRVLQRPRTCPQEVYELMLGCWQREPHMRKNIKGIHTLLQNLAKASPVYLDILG

[15] = target: Mitogen-activated protein kinase 14 (Homo sapiens, UniProt Q16539);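 also: part of a kinome-wide panel, MAPK14 entry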
Sequence of Mitogen-activated protein kinase 14 (Q16539 whole entry): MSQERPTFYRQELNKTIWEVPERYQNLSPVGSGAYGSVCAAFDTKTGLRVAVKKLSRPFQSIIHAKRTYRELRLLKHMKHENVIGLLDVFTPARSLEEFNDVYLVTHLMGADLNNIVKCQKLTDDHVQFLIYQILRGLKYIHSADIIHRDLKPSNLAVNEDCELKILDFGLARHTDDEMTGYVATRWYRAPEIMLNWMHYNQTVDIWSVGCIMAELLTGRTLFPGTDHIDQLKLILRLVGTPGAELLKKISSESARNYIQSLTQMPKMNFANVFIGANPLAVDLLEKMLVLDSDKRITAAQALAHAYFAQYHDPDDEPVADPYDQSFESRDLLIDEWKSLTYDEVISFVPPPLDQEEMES

Structure (SMILES) | IC50 [1] | IC50 [2] | Ki [3] | Ki [4] | Ki [5] | Ki [6] | Ki [7] | Ki [8] | Ki [9] | Ki [10] | Ki [11] | Ki [12] | Ki [13] | Ki [14] | Ki [15]
Cc1ccc(NC(=O)COc2cccc(/C=C3\SC(=S)N(CCC(=O)O)C3=O)c2)cc1Cl | > 99 µM (inactive) | 5.06 µM (active) |  |  |  |  |  |  |  |  |  |  |  |  | 
COc1cccc(C(C)NC(=O)c2ccc(-c3ccncc3)s2)c1 (stereo not given) |  |  | 0.316 µM (active) | > 3.16 µM (inactive) | > 3.16 µM (inactive) | > 5.01 µM (inactive) | > 3.98 µM (inactive) | > 3.16 µM (inactive) | > 2.51 µM (inactive) | 2 µM (active) | > 2.51 µM (inactive) | 0.398 µM (active) | > 3.98 µM (inactive) | > 3.98 µM (inactive) | > 3.98 µM (inactive)
